# Measurements as given in ChEMBL document CHEMBL5506051, “Structure-Activity Relationships toward the Identification of a High-Potency Selective Human Toll-like Receptor-7 Agonist” (J Med Chem, 2024).
# pEC50: −log10 of the molar value.
# What was measured:
# [1] = target: T1, Toll-like receptor 7 (Homo sapiens, UniProt Q9NYK1); test: Agonist activity at human TLR7 in HEK-Blue hTLR7 cells assessed as increase in inducible SEAP level incubated for overnight by QUANTI-Blue reagent based assay; format: cell-based
# T1 sequence (Q9NYK1 whole entry): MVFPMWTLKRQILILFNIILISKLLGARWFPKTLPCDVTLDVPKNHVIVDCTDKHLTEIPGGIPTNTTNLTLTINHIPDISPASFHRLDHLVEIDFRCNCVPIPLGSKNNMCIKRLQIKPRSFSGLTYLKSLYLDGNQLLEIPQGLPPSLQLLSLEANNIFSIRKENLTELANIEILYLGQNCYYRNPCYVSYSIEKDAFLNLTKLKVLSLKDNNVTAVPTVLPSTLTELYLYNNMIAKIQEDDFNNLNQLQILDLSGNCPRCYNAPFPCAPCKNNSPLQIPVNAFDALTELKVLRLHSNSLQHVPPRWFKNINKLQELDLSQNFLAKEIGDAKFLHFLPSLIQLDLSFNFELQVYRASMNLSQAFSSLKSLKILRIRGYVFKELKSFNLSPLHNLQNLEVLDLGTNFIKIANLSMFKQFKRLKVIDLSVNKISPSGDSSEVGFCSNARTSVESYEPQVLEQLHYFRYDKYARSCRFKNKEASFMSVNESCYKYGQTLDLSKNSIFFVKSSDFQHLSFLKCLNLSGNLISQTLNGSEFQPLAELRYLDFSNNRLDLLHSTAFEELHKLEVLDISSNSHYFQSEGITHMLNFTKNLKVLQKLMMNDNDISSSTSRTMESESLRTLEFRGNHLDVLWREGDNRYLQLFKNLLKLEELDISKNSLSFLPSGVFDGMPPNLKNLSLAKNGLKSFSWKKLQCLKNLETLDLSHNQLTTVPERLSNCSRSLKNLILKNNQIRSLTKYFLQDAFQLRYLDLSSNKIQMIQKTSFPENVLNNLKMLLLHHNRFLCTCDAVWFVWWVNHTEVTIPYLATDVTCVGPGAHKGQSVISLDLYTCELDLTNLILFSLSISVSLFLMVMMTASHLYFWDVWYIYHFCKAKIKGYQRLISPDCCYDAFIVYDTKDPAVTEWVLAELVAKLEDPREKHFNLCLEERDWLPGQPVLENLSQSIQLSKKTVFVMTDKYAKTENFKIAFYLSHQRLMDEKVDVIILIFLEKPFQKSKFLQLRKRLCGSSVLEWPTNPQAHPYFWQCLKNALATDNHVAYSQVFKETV
# [2] = target: T2, Toll-like receptor 8 (Homo sapiens, UniProt Q9NR97); test: Agonist activity at human TLR8 in HEK-Blue hTLR8 cells assessed as increase in inducible SEAP level incubated for overnight by QUANTI-Blue reagent based assay; format: cell-based
# T2 sequence (Q9NR97 whole entry): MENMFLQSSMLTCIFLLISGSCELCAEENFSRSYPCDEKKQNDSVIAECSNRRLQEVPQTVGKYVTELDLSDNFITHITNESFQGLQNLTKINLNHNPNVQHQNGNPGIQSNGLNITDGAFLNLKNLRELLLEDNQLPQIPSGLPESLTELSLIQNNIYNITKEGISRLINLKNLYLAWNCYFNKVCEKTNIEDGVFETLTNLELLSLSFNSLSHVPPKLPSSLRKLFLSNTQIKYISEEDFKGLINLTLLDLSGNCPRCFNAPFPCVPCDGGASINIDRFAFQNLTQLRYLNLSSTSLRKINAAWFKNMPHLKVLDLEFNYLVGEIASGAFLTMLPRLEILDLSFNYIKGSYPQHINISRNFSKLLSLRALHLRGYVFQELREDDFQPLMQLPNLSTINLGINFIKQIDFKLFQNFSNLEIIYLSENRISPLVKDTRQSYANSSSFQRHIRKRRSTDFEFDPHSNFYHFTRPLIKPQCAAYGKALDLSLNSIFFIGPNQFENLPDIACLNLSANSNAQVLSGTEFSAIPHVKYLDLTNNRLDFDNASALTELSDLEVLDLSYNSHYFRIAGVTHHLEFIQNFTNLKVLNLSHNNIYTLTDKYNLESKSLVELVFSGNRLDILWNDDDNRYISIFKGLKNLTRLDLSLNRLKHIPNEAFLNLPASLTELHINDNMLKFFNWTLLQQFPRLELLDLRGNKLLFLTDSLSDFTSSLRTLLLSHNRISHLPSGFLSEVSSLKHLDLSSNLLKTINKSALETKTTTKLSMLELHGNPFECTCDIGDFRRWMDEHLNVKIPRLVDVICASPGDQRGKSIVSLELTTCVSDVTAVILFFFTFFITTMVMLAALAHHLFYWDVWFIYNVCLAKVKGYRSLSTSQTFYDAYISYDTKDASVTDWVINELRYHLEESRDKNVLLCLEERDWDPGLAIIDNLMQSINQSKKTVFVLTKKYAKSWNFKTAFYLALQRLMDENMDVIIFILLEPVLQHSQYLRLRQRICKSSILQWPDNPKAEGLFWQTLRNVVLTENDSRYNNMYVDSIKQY
# [3] = tested on: Panel NCI-60 (60 carcinoma cell lines); test: Cytotoxicity against human Panel NCI-60 (60 carcinoma cell lines) at <=10 uM; format: toxicity, cell-based
# [4] = species: Homo sapiens; test: Selectivity index, ratio of EC50 for agonist activity at human TLR7 in HEK-Blue hTLR7 cells to EC50 for agonist activity at human TLR8 in HEK-Blue hTLR8 cells; format: cell-based
# [5] = target: T3, Toll-like receptor 7 (Homo sapiens) (UniProt Q9NYK1); test: Potency index, ratio of BBIQ EC50 to test compound EC50 for agonist activity at human TLR7 in HEK-Blue hTLR7 cells assessed as increase in inducible SEAP level incubated for overnight by QUANTI-Blue reagent based assay; format: cell-based; conditions: filed as agonist
# T3 sequence (whole entry): T1 sequence (Q9NYK1 whole entry)
# [6] = species: Homo sapiens; test: Selectivity ratio of agonist activity at human TLR8 to agonist activity at human TLR7
pEC50 [1],pEC50 [2],SMILES,further results
5.96,–,CCCCc1nc2c(N)nc3ccccc3c2n1Cc1ccc(C(=O)NN)cc1,–
6.07,–,CCCCc1nc2c(N)nc3ccccc3c2n1Cc1ccccc1,–
–,4.30,CCCCc1nc2c(N)nc3ccccc3c2n1Cc1ccc(C(=O)NCCO)cc1,–
–,–,CCCCCCCCNC(=O)c1ccc(Cn2c(CCCC)nc3c(N)nc4ccccc4c32)cc1,Activity [3]: Non-Toxic
5.74,–,CCCCc1nc2c(N)nc3ccccc3c2n1Cc1ccc(OC)cc1,–
6.70,4.50,CCCCc1nc2c(N)nc3ccccc3c2n1Cc1ccc(C(=O)NC)cc1,Activity [3]: Non-Toxic; Ratio EC50 [4]: 159; Ratio EC50 [5]: 8
5.08,–,CC(C)Cn1cnc2c(N)nc3ccccc3c21 [IMIQUIMOD],–
6.49,4.74,CCCCc1nc2c(N)nc3ccccc3c2n1Cc1ccc(C(N)=O)cc1,Ratio EC50 [4]: 57; Ratio EC50 [5]: 3
–,3.90,CCCCc1nc2c(N)nc3ccccc3c2n1Cc1ccc(O)cc1,–
–,–,CCCCOc1nc(N)c2c(n1)N(Cc1cccc(CN3CCCC3)c1)CC(=O)N2,Selectivity ratio [6]: 30
6.51,4.59,CCCCc1nc2c(N)nc3ccccc3c2n1Cc1ccc(C(=O)NCC(C)(C)O)cc1,–
